Source: patent US4454155A, “Pharmaceutical compositions containing a mono-substituted derivative of 4-phenyl-4-oxobuten-2-oic acid, and methods of using them in treating gastric and gastroduodenal ailments” (Roussel UCLAF, priority 1981, dated 1984)

Assays:
[1] = tested on: total acidity of the gastric juice; assay: Gastric anti-secretory activity (Shay, pylorus-ligated rats); format: in vivo, rat; details: 10 mg/kg, intraduodenally, male rats, 3 hours
Experimental: (1) Determination of the gastric anti-secretory activity
The technique used is described by H. Shay et al in Gastroenterology 5, 43 (1945).
Male rats were used, each having a weight of about 200 g (ten animals per lot), which had been without food for 48 hours but were allowed 8% glucose solution ad libitum. After the rats were slightly anesthetized with ether, the pylorus of each was ligated. At the end of the operation, different doses of the product to be tested, or in the case of the control animals a 0.5% carboxymethyl cellulose solution, were administered intraduodenally, whereupon the abdominal incision was sutured.
Three hours later, the animals were sacrificed and their stomachs removed after ligating the esophagus. The gastric juice was removed and centrifuged. The volume of gastric juice obtained was then measured and the total acidity of the gastric juice obtained was established by titrating a 100 μL sample of gastric juice to a pH of 7 with 1/10 N Sodium hydroxide aqueous solution. The total acidity was determined.
The percentage of variation of total acidity between the results from test animals and results from control animals were calculated.

[2] = tested on: ulcers in the stomachs of rats; assay: Anti-ulcer activity, stress ulcer (stress and cold); format: in vivo, rat; details: 10 mg/kg, by esophageal tube, female rats, stress at 8° C. for two hours
Experimental: (2) Determination of the anti-ulcer activity
The technique consists in inducing ulcers in the stomachs of rats by stress (stress and cold). The technique used is described by E. C. Senay and R. J. Levine, Proc. Soc. Ex. Biol. 124, 1221 (1967).
Female rats of 150 g (5 animals per lot) were used which had fasted for 48 hours with water ad libitum and glucose solution for 8 hours. The animals were given the test product, or a 0.5% solution of carboxymethyl cellulose in the case of the control animals, by esophageal tube. Two hours later, the animals were wrapped in a jacket of netting. Their paws were bound and the entire unit was placed in a refrigerator at 8° C. for two hours. The rats were freed and killed with ether. Their stomachs were removed, opened along the greater curvature and examined with a binocular magnifier. The seriousness of the lesions was rated from 0 to 3 for each stomach.
The average intensity of the ulcerations was calculated for each lot of rats. The difference in the degree of ulceration between test animals and control animals was determined and calculated as a percentage.

Acute toxicity = details: mouse, in vivo, po; per os, mice
Experimental: (3) Determination of the acute toxicity
The LD50 was evaluated after administration of the product per os in mice.

SMILES | Anti-secretory activity (% variation as compared with the controls), Acid Concentration [1] [%] | Anti-ulcer activity (% variation as compared with the controls), Ulceration [2] [%] | LD50 (Acute toxicity) [mg/kg]
O=C(O)C=CC(=O)c1ccccc1O [Example 1, 4-(2-hydroxyphenyl)-4-oxobuten-2-oic acid] | -65 | -35 | 350
COc1ccc(C(=O)C=CC(=O)O)cc1 [Example 2, 4-(4-methyoxyphenyl)-4-oxobuten-2-oic acid] | -66 | -73 | 500
